Data set [1] addresses hERG (human ether-à-go-go-related gene) potassium ion channel (Homo sapiens (Human), UniProt Q12809). The data set can be described thus: hERG Assay (Assay 4). The format is cell-based. The following applies: patch clamp, HEK 293 cells. On the procedure:
Compounds of the invention were tested in vitro against the hERG (human ether-à-go-go-related gene) potassium ion channel (a surrogate for IKr, the rapidly activating delayed rectifier cardiac potassium ion channel).
The buffer was HEPES-buffered physiological saline (HB-PS) solution composed of: 137 mM NaCl, 4.0 mM KCl, 1.8 mM CaCl2, 1 mM MgCl2, 10 mM HEPES, 10 mM glucose, pH adjusted to 7.4 with NaOH, and 0.3% DMSO. Chemicals used in solution preparation were purchased from Sigma-Aldrich (St. Louis, Mo.), unless otherwise noted, and were of ACS reagent grade purity or higher.
HEK (human embryonic kidney) 293 cells were stably transfected with hERG cDNA.
For the patch clamp experiment, onset and steady state inhibition of hERG potassium current was measured using a pulse pattern with fixed amplitudes (depolarization: +20 mV for 2 s; repolarization: −50 mV for 2 s) repeated at 10 s intervals from a holding potential of −80 mV. Peak tail current was measured during the 2 s step to −50 mV. A steady state was maintained for at least 30 seconds before applying compound or positive control (cisapride). Peak tail currents were measured until a new steady state was achieved.
Data acquisition and analyses were performed using the suite of pCLAMP® (ver. 8.2) programs (MDS Analytical Technologies, Sunnyvale, Calif.). Steady state was defined by the limiting constant rate of change with time (linear time dependence). The steady state before and after each compound application was used to calculate the percentage of current inhibited at each concentration.
Concentration-response data were fit to an equation of the following form: % Inhibition={1−1/[1+([Test]/IC50)N]}*100
where [Test] was the compound concentration, IC50 was the compound concentration at half-maximal inhibition, N was the Hill coefficient, and % Inhibition was the percentage of current inhibited at each compound concentration. Nonlinear least squares fits were solved with the Solver add-in for Excel 2003 (Microsoft, Wash.) and the IC50 was calculated.
Background: The hERG channel carries a current that helps repolarise heart muscle cells.

For data set [2], the system named is IL-17A production. As to the kind of experiment: Human Whole Blood Assay (Assay 3). The format is cell-based. Conditions: IL-17A secretion, 50% blood/media. On the procedure: Human Whole Blood Assay (Assay 3)
Compounds of the invention were tested in the human whole blood assay to measure their effects on IL-17A production as determined by cytokine secretion into 50% blood/media supernatant. Mixtures of sodium heparinized whole blood (isolated from healthy human donors) and the T cell activator CytoStim, in the presence or absence of compound, were plated in sterilized, tissue culture-treated 24-well plates. Specifically, the mixtures in each well were as follows: (1) 500 μL of whole blood, (2) 250 μL of compound diluted into RPMI-1640 media containing 10% HyClone™ FCS (Thermo Fisher Scientific, Waltham, Mass.), Gibco® Pen/Strep and Gibco® NEAA (Life Technologies, Grand Island, N.Y.), and (3) 250 μL, of CytoStim (Miltenyi Biotech, Germany) diluted to a final concentration of 10 μL/mL in complete cell culture medium.
Mixtures were incubated at 37° C./5% CO2 for 48 h, after which, 200 μL of clean supernatant (i.e., no red blood cells) from each well was transferred to a well in a 96-well plate. IL-17A cytokine expression was determined using 25 μL of the transferred supernatant diluted with 25 μL of Diluent 43 from the Human IL-17A V-PLEX™ kit (cat. #K151RFD-4, Meso Scale Discovery, Rockville, Md.). The assay was performed according to the manufacturer's instructions using included reagents. The IL-17A V-PLEX™ plates were read using the Meso Scale Discovery Imager (Model 1200). The levels of IL-17A were extrapolated from a standard curve using a four-parameter non-linear fitting model and expressed as pg/mL. These values were regressed against concentrations of the tested compounds to derive IC50 values using a four-parameter non-linear fitting model.

In data set [3] the target is recombinant RORγ Ligand Binding Domain (LBD) protein (Homo sapiens (Human), UniProt P51449). The data set can be described thus: Radio-Ligand RORγ Binding Assay (Assay 1). Conditions: competition with 25-hydroxy [26,27-3H]-cholesterol, SPA; read-out: RORγ Binding Ki Range (nM) (Assay 1). On the procedure: Radio-Ligand RORγ Binding Assay (Assay 1)
Compounds of the present invention were tested for ability to bind to RORγ in a cell-free competition assay with commercially available radio-ligand (RL), 25-hydroxy [26,27-^3H]-cholesterol (PerkinElmer, Cat. #NET674250UC), for a ligand binding site on a recombinant RORγ Ligand Binding Domain (LBD) protein expressed as a 6×His-Glutathione-S-Transferase (GST) fusion. […] The plate was shaken at 700 rpm for 20 min and incubated for 10 min at rt, after which 40 μL of poly-Lys YSi SPA beads (PerkinElmer, Cat. #RPNQ0010) were added to achieve 50 μg of the beads per well. The plate was incubated on an orbital shaker for 20 min and then for 10 min without agitation at rt. SPA signal for tritium beta radiation was registered on PerkinElmer Microbeta plate reader. […] The percent inhibition vs. concentration data were fit into a four-parameter model, and IC50 values were calculated from the fit as the concentrations corresponding to the inflection points on the dose-response curves.

For data set [4], the target named is full-length RORγt (Homo sapiens (Human), UniProt P51449). The data set can be described thus: RORγt 5×RORE Assay in Jurkat Cells (Assay 2). It is filed as cell-based. Conditions: 5×RORE luciferase reporter, read-out: RORγt5X IC50 Range (nM) (Assay 2). On the procedure:
RORγt 5×RORE Assay in Jurkat Cells (Assay 2)
Compounds of the present invention were tested for RORγ inverse agonist activity in a cell-based, transcriptional activity assay. […] (Promega, Cat. #N1021) using KpnI and HindIII restriction sites. […] Tested compounds were added to the cells in the same media (final concentration of DMSO was 0.1% (v/v)), and the plates were incubated at 37° C./5% CO2 for 16-18 hr. Luciferase activity in the conditioned supernatants was determined with NanoGlo® assay reagents (Promega, Cat. #N1130).
A general note: In a reporter assay the amount or activity of a reporter protein is the signal.

Sequence of hERG (human ether-à-go-go-related gene) potassium ion channel (Q12809 whole entry): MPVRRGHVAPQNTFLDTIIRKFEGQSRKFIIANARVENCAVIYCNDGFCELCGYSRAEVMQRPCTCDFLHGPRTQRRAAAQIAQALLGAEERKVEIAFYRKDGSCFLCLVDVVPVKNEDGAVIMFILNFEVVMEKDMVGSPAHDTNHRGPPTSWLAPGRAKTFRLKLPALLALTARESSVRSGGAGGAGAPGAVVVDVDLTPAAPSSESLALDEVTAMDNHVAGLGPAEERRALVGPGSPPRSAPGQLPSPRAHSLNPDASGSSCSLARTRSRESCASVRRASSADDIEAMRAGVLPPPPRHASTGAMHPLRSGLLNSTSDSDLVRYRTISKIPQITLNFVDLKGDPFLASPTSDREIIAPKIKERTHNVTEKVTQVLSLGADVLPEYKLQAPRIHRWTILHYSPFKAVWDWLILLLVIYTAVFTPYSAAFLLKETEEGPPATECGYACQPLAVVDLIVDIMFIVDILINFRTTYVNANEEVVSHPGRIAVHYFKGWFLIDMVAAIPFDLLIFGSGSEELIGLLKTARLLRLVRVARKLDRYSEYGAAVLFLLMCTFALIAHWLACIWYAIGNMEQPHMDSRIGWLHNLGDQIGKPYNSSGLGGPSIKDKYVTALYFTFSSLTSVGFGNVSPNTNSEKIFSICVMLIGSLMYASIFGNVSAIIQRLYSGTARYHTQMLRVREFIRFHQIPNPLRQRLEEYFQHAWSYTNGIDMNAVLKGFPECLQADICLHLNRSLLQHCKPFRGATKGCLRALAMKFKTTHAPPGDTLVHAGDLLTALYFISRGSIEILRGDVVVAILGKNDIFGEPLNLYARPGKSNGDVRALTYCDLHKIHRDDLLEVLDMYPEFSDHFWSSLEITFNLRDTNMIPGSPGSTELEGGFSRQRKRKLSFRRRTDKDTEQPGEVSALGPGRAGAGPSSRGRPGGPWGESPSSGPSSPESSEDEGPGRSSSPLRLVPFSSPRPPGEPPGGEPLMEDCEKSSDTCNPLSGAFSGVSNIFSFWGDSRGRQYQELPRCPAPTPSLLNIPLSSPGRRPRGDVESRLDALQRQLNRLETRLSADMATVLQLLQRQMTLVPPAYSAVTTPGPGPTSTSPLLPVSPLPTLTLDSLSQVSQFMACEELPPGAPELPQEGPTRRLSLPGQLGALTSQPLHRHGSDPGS
Sequence of recombinant RORγ Ligand Binding Domain (LBD) protein (P51449 269-508): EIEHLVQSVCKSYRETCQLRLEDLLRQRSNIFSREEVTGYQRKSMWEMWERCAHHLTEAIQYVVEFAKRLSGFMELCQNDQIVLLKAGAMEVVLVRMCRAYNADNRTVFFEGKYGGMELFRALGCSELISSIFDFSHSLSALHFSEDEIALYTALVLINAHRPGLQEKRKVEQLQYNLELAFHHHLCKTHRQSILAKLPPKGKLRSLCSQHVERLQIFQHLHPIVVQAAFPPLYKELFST
Sequence of full-length RORγt (P51449 other isoform, or with tags, fused parts or gaps): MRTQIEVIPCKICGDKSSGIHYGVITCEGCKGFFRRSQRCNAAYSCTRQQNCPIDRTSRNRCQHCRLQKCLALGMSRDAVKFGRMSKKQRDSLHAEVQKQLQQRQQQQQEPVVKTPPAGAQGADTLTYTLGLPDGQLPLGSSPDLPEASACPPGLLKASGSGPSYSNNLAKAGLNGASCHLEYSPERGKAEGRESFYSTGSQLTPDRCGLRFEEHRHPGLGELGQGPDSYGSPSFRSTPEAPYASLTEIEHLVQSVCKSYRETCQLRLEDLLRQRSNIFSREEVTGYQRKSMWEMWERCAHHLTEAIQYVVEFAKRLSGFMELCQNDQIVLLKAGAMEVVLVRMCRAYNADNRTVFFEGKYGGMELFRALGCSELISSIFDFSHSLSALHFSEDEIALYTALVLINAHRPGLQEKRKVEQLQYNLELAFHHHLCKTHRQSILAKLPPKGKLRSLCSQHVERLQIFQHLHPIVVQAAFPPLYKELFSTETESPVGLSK

Consider `CCS(=O)(=O)c1ccc(CNC(=O)c2cnc3c(c2)CN(C[C@H]2CC[C@H](C(F)(F)F)CC2)[C@H]3C(C)C)cc1`, for which, in data set [1] (comparator compounds), the “hERG Assay (Compound at 3 μM) % Inhibition (Assay 4)” value was 57.0%.
What is called IC50 is the concentration that inhibits the measured activity by half. In data set [2] (comparator compounds), `CCS(=O)(=O)c1ccc(CNC(=O)c2cnc3c(c2)CN(C[C@H]2CC[C@H](C(F)(F)F)CC2)[C@H]3C(C)C)nc1` yielded a concentration for half-maximal inhibition (IC50) above 200 nM. Also, in data set [1] (comparator compounds), the “hERG Assay (Compound at 3 μM) % Inhibition (Assay 4)” value is on record as 45.4%.
Compound `CC[C@H]1c2ncc(C(=O)N[C@@H](COC)c3ccc(S(=O)(=O)CC)cc3)cc2CN1C[C@H]1CC[C@H](C(F)(F)F)OC1` (single isomer, unassigned) [Compound 3] yielded an IC50 in data set [2] (CytoStim, 48 h) below 100 nM. Moreover, the “hERG Assay (Compound at 3 μM) % Inhibition (Assay 4)” value in data set [1] was determined as 24.3%.
In data set [2] (CytoStim, 48 h), `CC[C@H]1c2ncc(C(=O)N[C@@H](COC)c3ccc(S(=O)(=O)CC)cc3)cc2CN1C[C@@H]1CC[C@@H](C(F)(F)F)OC1` (single isomer, unassigned) [Compound 4] gave an IC50 below 100 nM.
Regarding `CC[C@H]1c2ncc(C(=O)N[C@@H](COC)c3ccc(S(=O)(=O)CC)cc3)cc2CN1C[C@H]1CC[C@H](C(F)(F)F)CC1` [Compound 1, (S)-7-ethyl-N—((R)-1-(4-(ethylsulfonyl)phenyl)-2-methoxyethyl)-6-((trans-4-(trifluoromethyl)cyclohexyl)methyl)-6,7-dihydro-5H-pyrrolo[3,4-b]pyridine-3-carboxamide], in data set [1], the “hERG Assay (Compound at 3 μM) % Inhibition (Assay 4)” value was 24.3%.
On to `CC[C@H]1c2ncc(C(=O)N[C@@H](COC(N)=O)c3ccc(S(=O)(=O)CC)cc3)cc2CN1C[C@H]1CC[C@H](C(F)(F)F)CC1` [Compound 2, (R)-2-((S)-7-ethyl-6-((trans-4-(trifluoromethyl)cyclohexyl)methyl)-6,7-dihydro-5H-pyrrolo[3,4-b]pyridine-3-carboxamido)-2-(4-(ethylsulfonyl)phenyl)ethyl Carbamate], for which the “hERG Assay (Compound at 3 μM) % Inhibition (Assay 4)” value in data set [1] was found to be 38.8%.
One may read the Ki as a dissociation constant, usually derived from enzyme kinetics or from competition with a known ligand. With `CCOC[C@H](NC(=O)c1cnc2c(c1)CN(C[C@H]1CC[C@H](C(F)(F)F)CC1)[C@H]2C(C)C)c1ccc(S(=O)(=O)CC)cc1` [Compound 7], in data set [3], the Ki is below 100 nM. Also, the IC50 in data set [4] lay in the range of 100 to 1000 nM.
`CCS(=O)(=O)c1ccc([C@@H](COC(N)=O)NC(=O)c2cnc3c(c2)CN(C[C@H]2CC[C@H](C(F)(F)F)CC2)[C@H]3C(C)C)cc1` [Compound 12]: the IC50 in data set [2] (CytoStim, 48 h) lay within 100 to 200 nM. For the same compound, the “hERG Assay (Compound at 3 μM) % Inhibition (Assay 4)” value in data set [1] was 38.8%.
For `CCS(=O)(=O)c1ccc([C@H](COC)NC(=O)c2cnc3c(c2)CN(C[C@H]2CC[C@H](C(F)(F)F)CC2)[C@H]3C(C)C)cc1` [Compound 15], in that order: below 100 nM and 50%.

The record behind these values is patent publication US11001583B2, “Dihydropyrrolopyridine inhibitors of ROR-gamma” (Vitae Pharmaceuticals, LLC, priority 2014, dated 2021).
